# Laboratory results from PMC9297976 (Journal of Applied Toxicology, 2021).
# Tests used:
# [1] = system: Japanese medaka (Oryzias latipes); test: Fish Short‐Term Reproduction Assay; format: in vivo; conditions: for GSI Female / GSI Male / HSI Female / HSI Male / Length Female / Length Male / Weight Female / Weight Male: completion of exposure
# medaka Esr1 (mEsr1) [2] = biological target: T1, medaka Esr1 (mEsr1) (Oryzias latipes, UniProt P50241); test: Medaka Esr1 reporter gene assay, antagonist assay; format: cell-based, Japanese medaka (Oryzias latipes); conditions: E2 spiked at 1.0 nM (B); MAC = 1.0 × 10^−5 M
# T1 sequence (P50241 1-620): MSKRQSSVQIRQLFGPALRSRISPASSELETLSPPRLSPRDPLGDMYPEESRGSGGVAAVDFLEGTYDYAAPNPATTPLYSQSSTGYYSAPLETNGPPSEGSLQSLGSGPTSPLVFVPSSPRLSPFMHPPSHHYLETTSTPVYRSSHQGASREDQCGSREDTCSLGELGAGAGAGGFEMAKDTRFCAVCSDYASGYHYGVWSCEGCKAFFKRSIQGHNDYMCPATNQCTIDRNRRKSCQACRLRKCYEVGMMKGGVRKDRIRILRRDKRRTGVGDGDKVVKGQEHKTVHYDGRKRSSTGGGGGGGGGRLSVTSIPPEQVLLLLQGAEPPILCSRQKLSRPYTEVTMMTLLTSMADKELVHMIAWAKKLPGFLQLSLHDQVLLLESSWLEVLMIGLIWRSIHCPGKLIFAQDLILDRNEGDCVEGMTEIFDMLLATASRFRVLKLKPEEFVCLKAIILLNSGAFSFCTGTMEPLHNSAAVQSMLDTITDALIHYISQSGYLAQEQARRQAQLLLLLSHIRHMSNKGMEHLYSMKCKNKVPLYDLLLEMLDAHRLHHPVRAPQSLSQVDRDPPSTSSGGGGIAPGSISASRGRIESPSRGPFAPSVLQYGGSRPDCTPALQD
# medaka Esr1 (mEsr1) [3] = biological target: T1, medaka Esr1 (mEsr1); test: cell-based; parameters: species or system Japanese medaka (Oryzias latipes)
# medaka ARβ (mArβ) [4] = biological target: T2, medaka ARβ (mArβ) (Oryzias latipes, UniProt D1MV73); test: Medaka ARβ reporter gene assay, antagonist assay; format: cell-based, Japanese medaka (Oryzias latipes)
# T2 sequence (D1MV73 1-744): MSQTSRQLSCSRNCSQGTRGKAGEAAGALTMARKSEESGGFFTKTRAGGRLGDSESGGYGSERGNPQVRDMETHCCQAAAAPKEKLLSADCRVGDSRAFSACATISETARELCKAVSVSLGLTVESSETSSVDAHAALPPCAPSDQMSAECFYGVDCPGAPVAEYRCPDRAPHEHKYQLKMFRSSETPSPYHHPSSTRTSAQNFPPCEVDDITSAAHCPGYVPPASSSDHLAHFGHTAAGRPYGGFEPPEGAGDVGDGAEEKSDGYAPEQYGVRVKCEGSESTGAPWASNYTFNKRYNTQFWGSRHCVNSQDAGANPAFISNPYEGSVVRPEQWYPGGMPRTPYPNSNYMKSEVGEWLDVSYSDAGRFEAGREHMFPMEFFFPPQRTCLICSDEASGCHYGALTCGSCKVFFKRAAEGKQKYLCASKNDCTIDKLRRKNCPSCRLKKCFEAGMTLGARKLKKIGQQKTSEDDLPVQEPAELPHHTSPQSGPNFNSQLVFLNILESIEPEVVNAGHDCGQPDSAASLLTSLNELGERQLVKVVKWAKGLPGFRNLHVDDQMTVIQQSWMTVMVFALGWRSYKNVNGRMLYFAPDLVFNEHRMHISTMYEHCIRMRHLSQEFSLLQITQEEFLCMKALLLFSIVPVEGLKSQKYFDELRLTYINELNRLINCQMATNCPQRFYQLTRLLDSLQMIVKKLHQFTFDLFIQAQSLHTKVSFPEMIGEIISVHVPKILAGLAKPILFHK
# medaka ARβ (mArβ) [5] = biological target: T2, medaka ARβ (mArβ); test: Medaka ARβ reporter gene assay, agonist assay; format: cell-based, Japanese medaka (Oryzias latipes); conditions: MAC = 1.0 × 10^−5 M
# [6] = 1,009 ng/L measured, 21 d, sig. ↑ vs control
# [7] = measured concentration 112 ng/L
# [8] = measured concentration 272 ng/L
# [9] = measured concentration 1,009 ng/L
smiles,measurement,setting,value
"C[C@]12CC[C@@H]3c4ccc(O)cc4CC[C@H]3[C@@H]1CCC2=O [Chemical E1, Estrone]",Fertility rate,"[1]; 29 ng/L measured, 21 d",92 ± 9.8%
same,"Hepatic VTG, female","[1]; 29 ng/L measured, 21 d",652 ± 391 ng/mg‐liver
same,"Hepatic VTG, male","[1]; 29 ng/L measured, 21 d",47.9 ± 54.0 ng/mg‐liver
same,Mortality,"[1]; 29 ng/L measured, 21 d",0.0%
same,"Mortality, number of dead fish","[1]; 29 ng/L measured, 21 d",0
same,Number of fertilized eggs (per female per day),"[1]; 29 ng/L measured, 21 d",17 ± 4.4
same,Number of total eggs (per female per day),"[1]; 29 ng/L measured, 21 d",18 ± 3.2
same,SSC female (joint plates with papillary processes),"[1]; 29 ng/L measured, 21 d",0 ± 0
same,SSC male (joint plates with papillary processes),"[1]; 29 ng/L measured, 21 d",97 ± 14
same,Fertility rate,"[1]; 112 ng/L measured, 21 d",96 ± 1.3%
same,"Hepatic VTG, female","[1]; 112 ng/L measured, 21 d",977 ± 274 ng/mg‐liver
same,"Hepatic VTG, male","[1]; 112 ng/L measured, 21 d",382 ± 351 ng/mg‐liver
same,Mortality,"[1]; 112 ng/L measured, 21 d",0.0%
same,"Mortality, number of dead fish","[1]; 112 ng/L measured, 21 d",0
same,Number of fertilized eggs (per female per day),"[1]; 112 ng/L measured, 21 d",19 ± 2.4
same,Number of total eggs (per female per day),"[1]; 112 ng/L measured, 21 d",19 ± 2.6
same,SSC female (joint plates with papillary processes),"[1]; 112 ng/L measured, 21 d",0 ± 0
same,SSC male (joint plates with papillary processes),"[1]; 112 ng/L measured, 21 d",98 ± 25
same,Fertility rate,"[1]; 272 ng/L measured, 21 d",96 ± 2.8%
same,"Hepatic VTG, female","[1]; 272 ng/L measured, 21 d","1,017 ± 238 ng/mg‐liver"
same,Mortality,"[1]; 272 ng/L measured, 21 d",0.0%
same,"Mortality, number of dead fish","[1]; 272 ng/L measured, 21 d",0
same,Number of fertilized eggs (per female per day),"[1]; 272 ng/L measured, 21 d",16 ± 2.5
same,Number of total eggs (per female per day),"[1]; 272 ng/L measured, 21 d",17 ± 2.5
same,SSC female (joint plates with papillary processes),"[1]; 272 ng/L measured, 21 d",0 ± 0
same,SSC male (joint plates with papillary processes),"[1]; 272 ng/L measured, 21 d",85 ± 14
same,"Hepatic VTG, male","[1]; 272 ng/L measured, 21 d, sig. ↑ vs control","3,649 ± 665 ng/mg‐liver"
same,Fertility rate,"[1]; 1,009 ng/L measured, 21 d",86 ± 3.6%
same,Mortality,"[1]; 1,009 ng/L measured, 21 d",0.0%
same,"Mortality, number of dead fish","[1]; 1,009 ng/L measured, 21 d",0
same,SSC female (joint plates with papillary processes),"[1]; 1,009 ng/L measured, 21 d",0 ± 0
same,SSC male (joint plates with papillary processes),"[1]; 1,009 ng/L measured, 21 d",85 ± 18
same,"Hepatic VTG, female",[1]; [6],"1994 ± 1,480 ng/mg‐liver"
same,"Hepatic VTG, male",[1]; [6],"5,429 ± 687 ng/mg‐liver"
same,Number of total eggs (per female per day),"[1]; 1,009 ng/L measured, 21 d, sig. ↓ vs control",10 ± 2.0
same,"Fecundity, number of total eggs (in words)",[1]; 21 d,statistically significant decrease
same,"LOEC, elevated hepatic VTG in males",[1]; 21 d,272 ng/L
same,LOECREPRO,[1]; LOEC on reproduction (fecundity and/or fertility),1.009 µg/L
same,minimal effective concentration,"[1]; Oryzias latipes, 504 h, read-out: LOECmVTG",0.000272 µg/mL
same,Fertility rate (in words),[1]; chemicals with significant decrease of number of total eggs,no significant effect
same,LOECREPRO (reduction in fecundity or fertility),[1]; concentrations without overt toxicity,1.009 µg/L
same,LOECTOX,[1]; lowest observed effect concentration on mortality,ND (>1.009) μg/L
same,GSI Female,[1]; measured concentration 29 ng/L,10.7 ± 1.4%
same,GSI Male,[1]; measured concentration 29 ng/L,1.15 ± 0.31%
same,HSI Female,[1]; measured concentration 29 ng/L,5.4 ± 0.61%
same,HSI Male,[1]; measured concentration 29 ng/L,2.0 ± 0.28%
same,Length Female,[1]; measured concentration 29 ng/L,33.8 ± 1.0 mm
same,Length Male,[1]; measured concentration 29 ng/L,35.8 ± 1.7 mm
same,Weight Female,[1]; measured concentration 29 ng/L,454 ± 56 mg
same,Weight Male,[1]; measured concentration 29 ng/L,468 ± 85 mg
same,GSI Female,[1]; [7],11.2 ± 1.8%
same,GSI Male,[1]; [7],1.17 ± 0.27%
same,HSI Female,[1]; [7],5.5 ± 0.77%
same,HSI Male,[1]; [7],2.1 ± 0.54%
same,Length Female,[1]; [7],34.3 ± 1.6 mm
same,Length Male,[1]; [7],36.5 ± 1.2 mm
same,Weight Female,[1]; [7],460 ± 86 mg
same,Weight Male,[1]; [7],481 ± 44 mg
same,GSI Female,[1]; [8],11.3 ± 1.0%
same,GSI Male,[1]; [8],0.84 ± 0.32%
same,HSI Female,[1]; [8],6.0 ± 0.76%
same,HSI Male,[1]; [8],2.7 ± 0.38%
same,Length Female,[1]; [8],34.0 ± 1.0 mm
same,Length Male,[1]; [8],36.5 ± 1.3 mm
same,Weight Female,[1]; [8],417 ± 41 mg
same,Weight Male,[1]; [8],464 ± 62 mg
same,GSI Female,[1]; [9],11.4 ± 7.1%
same,GSI Male,[1]; [9],0.48 ± 0.23%
same,HSI Female,[1]; [9],5.1 ± 1.24%
same,HSI Male,[1]; [9],3.5 ± 0.50%
same,Length Female,[1]; [9],34.2 ± 2.1 mm
same,Length Male,[1]; [9],35.9 ± 1.4 mm
same,Weight Female,[1]; [9],443 ± 97 mg
same,Weight Male,[1]; [9],468 ± 54 mg
same,Antagonistic activity,medaka Esr1 (mEsr1) [2],NE (MAC = 1.0 × 10^−5 M)^(B)
same,EC50,medaka Esr1 (mEsr1) [3],5.4 nM
same,In vitro positive: Esr,medaka Esr1 (mEsr1) [3]; mode of action in which EC50 or PC10 was obtained in RGA,Esr
same,IC50,"medaka ARβ (mArβ) [4]; Antagonistic activity IC50, 11‐KT spiked at 50 nM (D)",1500 nM
same,In vitro positive: aAr,medaka ARβ (mArβ) [4]; mode of action in which IC50 or IC30 was obtained in RGA,aAr
same,Antagonistic activity on mArβ (in words),medaka ARβ (mArβ) [4]; transcriptional activity on mArβ by 11KT,inhibitory potency
same,Agonistic activity,medaka ARβ (mArβ) [5],NE (MAC = 1.0 × 10^−5 M)
